From patent publication US8334259B2, “Method of treating endothelial dysfunction comprising administration of a thrombin peptide derivative” (The Board of Regents, The University of Texas System, priority 2006, dated 2012)
One block for each substance: values may come before it.

Key:
eNOS mRNA [1] = experiment: SYBR Green real-time PCR of eNOS mRNA in HCAE cells; format: cell-based, human; conditions: 24 h
Method: (§1) Human coronary artery endothelial cells (HCAE cells, Cambrex Bio Science Walkersville, Walkersville, Md.) were cultured in 5% CO2 at 37° C. in endothelial cell growth medium (EGM) supplemented with 2% fetal bovine serum and Single Quot supplements (Clonetics, San Diego, Calif.; containing epidermal growth factor, hydrocortisone, vascular endothelial growth factor, fibroblast growth factor, insulin growth factor, ascorbic acid, heparin, gentamycin, and amphotericin B). Cells were used between passages 4 and 6 for these studies. HCAE cells were plated at a density of 50,000 cells per well in 12-well plates and were grown for 3 days to reach confluency. Two-day post-confluent cells were treated with TNFα or TP508. Cells were then incubated in normoxic or 1% hypoxic conditions for the indicated times. In some experiments, cells were pretreated with TP508 for 1 h before TNFα stimulation. For RNA extraction, HCAE cells were cultured in 6-well plates.
Real time quantitative PCR was used to determine relative expression of eNOS mRNA in endothelial cells treated with TP508 or TNF. […] Quantitative PCR amplifications were done using 2 μl of cDNA in a total volume of 25 μl using SYBR green probes in the SYBR Green PCR Master Mix (ABI). […] The reverse-transcribed cDNA sample cycle threshold values were determined from triplicate samples and normalized to the 18S “housekeeping” gene.

arginase 1 (ARG1) = experiment: Western blot of arginase 1 expression in HCAE cells with or without TNFα; format: cell-based, human; conditions: TNFα 24 h, normoxic
eNOS mRNA [2] = experiment: RT-PCR of eNOS mRNA in HCAE cells; format: cell-based, human; conditions: 6 h, 25 or 30 cycles
Method: as §1
Total RNA was isolated using an Ambion isolation kit as described by the manufacturer.
RT-PCR for eNOS was performed by Ready-to-Go RT-PCR Beads (Amersham Biosciences) using a two-step protocol. First, cDNA synthesis was achieved by incubating 1 μg total RNA with 1 μg random hexamers (pdN6) as primers and M.-MuLV reverse transcriptase at 42° C. for 60 min. […]

ARG1 = ARG1 expression in HAE cells treated with TNFα; format: cell-based, human
Text: Under normoxic conditions, TP508 increased phosphorylated eNOS (p-eNOS) and eNOS in cells with and without TNFα/hypoxic treatment.

eNOS [3] = experiment: Western blot of eNOS expression and phosphorylation (S1177) in HCAE cells; format: cell-based, human; conditions: 24 h
Method: as §1
The cell lysates were subjected to SDS-PAGE in a 10% polyacrylamide gel and transferred to a nitrocellulose membrane (0.2-μm, Invitrogen). After blocking with 5% milk, the membrane was incubated overnight at 4° C. with primary antibodies against phospho-eNOS (Ser 1177) and eNOS (Cell Signaling Technology, Beverly, Mass.), human type-1 arginase (clone 9C5) (Cell Sciences, Canton, Mass.), or GAPDH (Santa Cruz Biotechnology, Santa Cruz, Calif.). […]

[4] = system: Human coronary artery endothelial (HCAE) cells; experiment: Transmembrane cell migration assay toward human VEGF (BD FluoroBlok inserts); format: cell-based; conditions: VEGF 10 ng/ml, hypoxic, 22 h
Method: The ability of a test substance to attract endothelial cells and stimulate their migration through pores in the membrane is one of several tests to determine the angiogenic potential of test substances. […] Prior to migration assay, cells were cultured with or without TP508 to determine the effect of TP508 on endothelial migration. Human coronary artery endothelial (HCAE) cells (Lonza Walkersville, Inc., Walkersville, Md.) were cultured in the absence (control) or presence of TP508 [50 μg/ml] (“TP pret” in FIG. 9A and FIG. 9B) for 24 hours. Transmembrane cell migration assays were performed using BD FluoroBlok inserts (BD Bioscience, Bedford, Mass.) as described by the vendor. Control or TP508 pretreated cells were added into the top of the inserts. […] (V) or medium alone (C) was added to the lower chamber of the insert plate as a chemoattractant. Endothelial migration was performed in normoxic or 1% hypoxic conditions. After a 22-hour incubation, cells were labeled post-migration with Calcein AM and measured by detecting the fluorescence of the cells that migrated to the underside of the insert membrane.

eNOS [5] = experiment: Human VEGF-induced eNOS activation (phosphorylation at S1177) in HCAE cells, Western blot; format: cell-based
Method: Human VEGF-induced eNOS activation was determined by Western blotting using an antibody recognizing the activated form of eNOS (phosphorylated at […]) (Cell Signaling, Danvers, Mass.). The membrane was re-probed with anti-GAPDH (glyceraldehyde-3-phosphate dehydrogenase) antibody to show equal protein loading. A bar graph representing densitometric analysis of the activated eNOS Western blot after different treatments is shown in FIG. 8.

[6] = system: Human coronary artery endothelial (HCAE) cells; experiment: Endothelial cell invasion assay through Matrigel toward human VEGF; format: cell-based; conditions: cells not pretreated, VEGF 10 ng/ml, normoxic or hypoxic
Method: Invasion of endothelial cells through a Matrigel matrix is one of many assays used to determine the angiogenic potential of test substances and is thought to be more predictive of angiogenesis in vivo than a simple chemotactic assay through open membrane pores since the cells must degrade and invade the matrix to move into and through the pores in the membrane. […] Human coronary artery endothelial (HCAE) cells (Lonza Walkersville, Inc., Walkersville, Md.) were cultured in the absence (control) or presence of TP508 [50 μg/ml] (TP pret) for 24 hours. Endothelial cell invasion assays were performed using BD BioCoat™ Angiogenesis System (BD Bioscience, Bedford, Mass.) which utilizes FluoroBlok inserts coated with BD Matrigel Matrix (BD Bioscience, Bedford, Mass.). Control or TP508 pretreated cells were added into the top of the inserts. […] After 22 hours of incubation, cells were labeled post-invasion with Calcein AM and measured by detecting the fluorescence of the cells that migrated to the underside of insert membrane.

[7] = system: HLME (Human Lung Microvascular Endothelial Cells); experiment: Survival of serum-deprived HLME cells; format: cell-based
VEGF mRNA = experiment: Real-time PCR of VEGF mRNA in HCMVE cells; format: cell-based, human; conditions: VEGF 10 ng/ml, 24 h
Text: Real-time PCR analyses show changes in steady-state levels of VEGF mRNA after treatment. Data from one experiment performed in triplicate are shown in FIG. 11 as mean±SD. *p<0.01 compared to control (C) cells in normoxia. ^#p<0.01 compared to control (C) cells in hypoxia.

AC-23 = experiment: Binding of biotin-conjugated thrombin to complementary peptide AC-23
Chain of AC-23 (as listed by the source): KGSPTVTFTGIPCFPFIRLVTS
Text: Addition of TP508 inhibited specific binding of biotin-labeled thrombin to AC-23. Up to 60% of the binding of thrombin to AC-23 can be inhibited by the addition of TP508. Therefore, both thrombin and TP508 bind to the complementary peptide, AC-23. […] Antibodies to AC-23 and other complementary peptides of thrombin can therefore be used to characterize the thrombin binding site that is activated by TP508, and can be used in the therapeutic and other methods described herein.

23C53 = experiment: Binding of biotin-conjugated thrombin to complementary peptide 23C53
Chain of 23C53 (as listed by the source): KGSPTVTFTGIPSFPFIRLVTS

Substance: TNFα
- Decrease of eNOS mRNA level (eNOS mRNA [1]): ~80%
- ARG1 expression relative to control cultures (arginase 1 (ARG1)): significant increase
- eNOS mRNA expression (RT-PCR) (eNOS mRNA [2]): drastically decreased
- Expression of ARG1 (ARG1): increasing expression
- Reduction of eNOS expression relative to normoxic controls (eNOS [3]): 65%

Substance: VEGF
- Endothelial cell migration relative to media control cells [4]: ~150%
- Decrease of VEGF-stimulated eNOS phosphorylation in hypoxic compared to normoxic cells (eNOS [5]; hypoxic (1% O2, 24 h) HCAE cells, 1 min VEGF): ~4 fold
- VEGF-induced phosphorylation of eNOS on serine 1177, maximum (eNOS [5]; normoxic HCAE cells, VEGF 50 ng/ml, 1 minute): 2 fold
- Invasion of control endothelial cells through Matrigel toward human VEGF [6]: not stimulated
- Cell survival [7]: increased survival at lower levels
- VEGF mRNA in hypoxic cells (VEGF mRNA; 1% hypoxic): no effect, or decreased
- Decrease of VEGF mRNA expression compared to control cells (VEGF mRNA; normoxic): 2 fold

- Specific binding of thrombin to AC23 (AC-23): bind specifically
- Specific binding of thrombin to 23C53 (23C53): bind specifically
Substance: thrombin
